Source: patent US5162330A, “Dynemicin C antibiotic, its triacetyl derivative and pharmaceutical composition containing same” (Bristol-Myers Squibb Co., priority 1990, dated 1992)
≈ marks a conversion by molar mass, not a printed value.

Assays:
[1] = test system: murine and human tumor cell lines; test: In vitro cytotoxicity, tumor cell lines as a group; format: cell-based; conditions: in words
Experimental: (§1) Dynemicin C and its triacetate derivative were tested for in vitro cytotoxicity against murine and human tumor cell lines. Dynemicin A and its triacetate derivative were used as reference compounds. B16-F10 (murine melanoma) cells were grown to the logarithmic phase in enriched Eagle minimum essential medium (MEM) supplemented with fetal calf serum (FCS, 10%) and kanamycin (60 mcg/ml) and HCT-116 (human colon carcinoma) cells in Maccoy's 5A medium supplemented with FCS (10%), penicillin (100 μ/ml) and streptomycin (100 mcg/ml), and were harvested and inoculated into wells of the 96- or 24-well tissue culture plate with test materials at concentrations of 1.5×10^4, 1.3×10^4, 1.3×10^4, 2.5×10^4 and 3.0×10^4 cells/ml., respectively. They were incubated at 37° C. in a humidified atmosphere of 5% CO2 and 95% air for 72 hours. The cytotoxic activities were determined colorimetrically at 540 nm after staining viable cells with 0.006% neutral red solution.

gram-positive organisms = test: In vitro antibacterial activity, gram-positive organisms as a group; format: cell-based
Experimental: (§2) The minimum inhibitory concentration (MIC) was determined by a two-fold serial tube dilution method using nutrient agar (pH7, Difco containing 10^5 cfu/ml).

[2] = test system: B16-F10 (murine melanoma) cells; test: In vitro cytotoxicity; format: cell-based; conditions: Mus musculus, 72 hours, 37° C., neutral red, 540 nm
Experimental: as §1

[3] = test system: HCT-116 (human colon carcinoma) cells; test: In vitro cytotoxicity; format: cell-based; conditions: 72 hours, 37° C., neutral red, 540 nm
Experimental: as §1

E. faecium A24817 = test: In vitro antibacterial MIC; format: cell-based; conditions: Enterococcus faecium, pH 7, nutrient agar pH7, 32° C., 18 hours
Experimental: as §2

X. maltophilia No. 661 = test: In vitro antibacterial MIC; format: cell-based; conditions: Stenotrophomonas maltophilia, pH 7, nutrient agar pH7, 32° C., 18 hours
Experimental: as §2

S. aureus IPM-24 (MRSA) = test: In vitro antibacterial MIC; format: cell-based; conditions: Staphylococcus aureus, 18 h, pH 7
Experimental: as §2

P. cepecia No. 651 = test: In vitro antibacterial MIC; format: cell-based; conditions: 18 h, pH 7
Experimental: as §2

P. rettgeri IPM-14 = test: In vitro antibacterial MIC; format: cell-based; conditions: Providencia rettgeri, IPM14, 18 h, pH 7
Experimental: as §2

P. vulgaris IPM-13 = test: In vitro antibacterial MIC; format: cell-based; conditions: Proteus vulgaris, IPM13, 18 h, pH 7
Experimental: as §2

S. aureus smith = test: In vitro antibacterial MIC; format: cell-based; conditions: Staphylococcus aureus, 18 h, pH 7
Experimental: as §2

P. cepecia A21213 = test: In vitro antibacterial MIC; format: cell-based; conditions: 18 h, pH 7
Experimental: as §2

S. marcescens IPM-16 = test: In vitro antibacterial MIC; format: cell-based; conditions: Serratia marcescens, IPM16, 18 h, pH 7
Experimental: as §2

P. aeruginosa IPM-8 = test: In vitro antibacterial MIC; format: cell-based; conditions: Pseudomonas aeruginosa, IPM8, 18 h, pH 7
Experimental: as §2

S. marcescens IPM-15 = test: In vitro antibacterial MIC; format: cell-based; conditions: Serratia marcescens, IPM15, 18 h, pH 7
Experimental: as §2

E. cloacae IPM-12 = test: In vitro antibacterial MIC; format: cell-based; conditions: Enterobacter cloacae, IPM12, 18 h, pH 7
Experimental: as §2

P. aeruginosa A9843A = test: In vitro antibacterial MIC; format: cell-based; conditions: Pseudomonas aeruginosa, 18 h, pH 7
Experimental: as §2

P. aeruginosa A20599 = test: In vitro antibacterial MIC; format: cell-based; conditions: Pseudomonas aeruginosa, A20599, 18 h, pH 7
Experimental: as §2

E. coli Juhl A15119 = test: In vitro antibacterial MIC; format: cell-based; conditions: Escherichia coli, JUHLA15119, 18 h, pH 7
Experimental: as §2

M. luteus PCI 1001 = test: In vitro antibacterial MIC; format: cell-based; conditions: Micrococcus luteus, PCI1001, pH 7, nutrient agar pH7, 32° C., 18 hours
Experimental: as §2

E. faecalis A9808 = test: In vitro antibacterial MIC; format: cell-based; conditions: Enterococcus faecalis, A9808, 18 h, pH 7
Experimental: as §2

P. aeruginosa KKA19 = test: In vitro antibacterial MIC; format: cell-based; conditions: Pseudomonas aeruginosa, pH 7, nutrient agar pH7, 32° C., 18 hours
Experimental: as §2

P. mirabilis IFO 3849 = test: In vitro antibacterial MIC; format: cell-based; conditions: Proteus mirabilis, IFO3849, 18 h, pH 7
Experimental: as §2

M. morganii I510 = test: In vitro antibacterial MIC; format: cell-based; conditions: Morganella morganii, I510, 18 h, pH 7
Experimental: as §2

S. aureus A15036 (MRSA) = test: In vitro antibacterial MIC; format: cell-based; conditions: Staphylococcus aureus, 18 h, pH 7
Experimental: as §2

E. coli 255 = test: In vitro antibacterial MIC; format: cell-based; conditions: Escherichia coli, 255, 18 h, pH 7
Experimental: as §2

K. pneumoniae PCI 602 = test: In vitro antibacterial MIC; format: cell-based; conditions: Klebsiella pneumoniae, PCI602, 18 h, pH 7
Experimental: as §2

X. maltophilia GN12873 = test: In vitro antibacterial MIC; format: cell-based; conditions: Stenotrophomonas maltophilia, pH 7, nutrient agar pH7, 32° C., 18 hours
Experimental: as §2

P. aeruginosa IPM-9 = test: In vitro antibacterial MIC; format: cell-based; conditions: Pseudomonas aeruginosa, IPM9, 18 h, pH 7
Experimental: as §2

S. epidermidis 11-1230 = test: In vitro antibacterial MIC; format: cell-based; conditions: Staphylococcus epidermidis, 111230, 18 h, pH 7
Experimental: as §2

[4] = test system: Candida albicans ATCC 38247; test: In vitro antifungal MIC; format: cell-based
Experimental: (§3) The antifungal MICs of dynemicin C and its triacetate were determined by an agar dilution method on yeast morphology agar adjusted to pH7.0 with 1/15M phosphate buffer. A 5 μl aliquot of fungal suspension containing 10^6 cells/ml was inoculated onto the surface of the antibiotic-containing agar plates with a multiinoculator.

[5] = test system: Cryptococcus neoformans D49; test: In vitro antifungal MIC; format: cell-based
Experimental: as §3

[6] = test system: Pseudomonas aeruginosa species; test: In vitro antibacterial activity, Pseudomonas aeruginosa as a group; format: cell-based; conditions: in words
Experimental: as §2

gram-negative organisms = test: In vitro antibacterial activity, gram-negative organisms as a group; format: cell-based; conditions: other gram-negatives than P. aeruginosa, except Enterobacter cloacae IPM-12 and Serratia marcescens IPM-16
Experimental: as §2

Solubility = format: physicochemical
C. neoformans IAM4514 = test: In vitro antifungal MIC; format: cell-based, Cryptococcus neoformans
Experimental: as §3

COC1=C(C=O)C(C)C23OC24c2cc(O)c5c(c2NC3C#CC=CC#CC14)C(=O)c1c(O)ccc(O)c1C5=O (centres unmarked) [Dynemicin C]
cytotoxic activity compared with dynemicin A [1]: almost the same activity as dynemicin A
activity against gram-positive organisms compared with amikacin (gram-positive organisms; comparison in words): much better activities against these organisms than amikacin
activity against gram-positive organisms (gram-positive organisms; in words): strong activity
IC50 [2]: 0.0028 µg/mL (≈ 0.00537 µM)
IC50 [3]: 0.0086 µg/mL (≈ 0.0165 µM)
MIC (E. faecium A24817): 0.0008 µg/mL (≈ 0.00153 µM)
MIC (X. maltophilia No. 661): 1.6 µg/mL (≈ 3.07 µM)
MIC (S. aureus IPM-24 (MRSA)): < 0.0002 µg/mL
MIC (P. cepecia No. 651): 0.1 µg/mL (≈ 0.192 µM)
MIC (P. rettgeri IPM-14): 0.1 µg/mL (≈ 0.192 µM)
MIC (P. vulgaris IPM-13): 0.05 µg/mL (≈ 0.0959 µM)
MIC (S. aureus smith): < 0.0002 µg/mL
MIC (P. cepecia A21213): 0.1 µg/mL (≈ 0.192 µM)
MIC (S. marcescens IPM-16): 100 µg/mL (≈ 192 µM)
MIC (P. aeruginosa IPM-8): 100 µg/mL (≈ 192 µM)
MIC (S. marcescens IPM-15): 25 µg/mL (≈ 47.9 µM)
MIC (E. cloacae IPM-12): 100 µg/mL (≈ 192 µM)
MIC (P. aeruginosa A9843A): 100 µg/mL (≈ 192 µM)
MIC (P. aeruginosa A20599): 100 µg/mL (≈ 192 µM)
MIC (E. coli Juhl A15119): 100 µg/mL (≈ 192 µM)
MIC (M. luteus PCI 1001): 0.0008 µg/mL (≈ 0.00153 µM)
MIC (E. faecalis A9808): 0.0008 µg/mL (≈ 0.00153 µM)
MIC (P. aeruginosa KKA19): 100 µg/mL (≈ 192 µM)
MIC (P. mirabilis IFO 3849): 0.8 µg/mL (≈ 1.53 µM)
MIC (M. morganii I510): 0.1 µg/mL (≈ 0.192 µM)
MIC (S. aureus A15036 (MRSA)): < 0.0002 µg/mL
MIC (E. coli 255): 100 µg/mL (≈ 192 µM)
MIC (K. pneumoniae PCI 602): 0.8 µg/mL (≈ 1.53 µM)
MIC (X. maltophilia GN12873): 100 µg/mL (≈ 192 µM)
MIC (P. aeruginosa IPM-9): 100 µg/mL (≈ 192 µM)
MIC (S. epidermidis 11-1230): < 0.0002 µg/mL
activity compared with ketoconazole ([4]; Candida albicans ATCC 38247, amphotericin resistant, in words): stronger than that of ketoconazole
MIC ([4]; Candida albicans, ATCC38247, 40 h, pH 7): 0.8 µg/mL (≈ 1.53 µM)
activity (compared with amphotericin B and ketoconazole) ([5]; Cryptococcus neoformans D49, in words): much more active than amphotericin B and ketoconazole
MIC ([5]; Cryptococcus neoformans, D49, 40 h, pH 7): 0.0063 µg/mL (≈ 0.0121 µM)
activity against Pseudomonas aeruginosa species [6]: did not show any activity
activity against gram-negatives compared with amikacin (gram-negative organisms): activity better than amikacin
solubility in 1,4-dioxane (Solubility; 1,4-dioxane): soluble
solubility in acetonitrile (Solubility; acetonitrile): soluble
solubility in dimethylformamide (Solubility; dimethylformamide): soluble
solubility in dimethylsulfoxide (Solubility; dimethylsulfoxide): soluble
solubility in ethyl acetate (Solubility; ethyl acetate): slightly soluble
solubility in methanol (Solubility; methanol): slightly soluble
solubility in n-hexane (Solubility; n-hexane): practically insoluble
solubility in water (Solubility; water): practically insoluble
activity (compared with amphotericin B and ketoconazole) (C. neoformans IAM4514; C. neoformans IAM4514, in words): much more active than amphotericin B and ketoconazole
MIC (C. neoformans IAM4514; Cryptococcus neoformans, IAM4514, 40 h, pH 7): 0.013 µg/mL (≈ 0.0249 µM)
